# Patent US20230158084A1, “PROBIOTICS, METABOLITES, AND USES THEREOF” (California Institute of Technology, priority 2018, published 2023)
# Entries after “also recorded” stand apart in the source; their conditions may differ.
# Key:
# BTBR mice [1] = experiment: Marble burying (MB), BTBR mice given metabolites; format: in vivo, mouse; conditions: BTBR offspring; 10 mM in drinking water before mating and throughout lifetime (prenatal administration); vs untreated vehicle controls
# Method: FIGS. 5A-D are a series of drawings illustrating that differential metabolites impact ASD-relevant behaviors in SPF mice in accordance with some embodiments herein. FIG. 5A: The abundance of select metabolites in the offspring microbiome is correlated with behavior of male offspring. Spearman correlation between the microbiome and mouse behavior, by donor (See FIGS. 1A-0). […] Color scale denotes Spearman ρ. […] Groups of mice were orally administered 10 mM Taurine or 5AV in drinking water before mating, and throughout their lifetime. Offspring were tested by marble burying, direct social interaction, and open field tests, and compared to untreated vehicle controls. Results are aggregated from 2 independent experiments. NControl=42, […]=52, NTaurine=36. Bar plots denote mean and S.E.M. Hypothesis on differences in means were tested by ANOVA on trimmed means (10%) and subsequent posthoc tests. FIGS. 5E-L: qPCR of BTBR brains after 5AV and taurine administration. Results are aggregated from 2 independent experiments. Hypothesis on differences in means were tested by ANOVA on trimmed means (10%) and subsequent posthoc tests. […] The number of buried marbles (50% or more covered) was then recorded and photographed for reference. […] As such, it will be appreciated that at a given stage of development, some molecules may readily pass through the blood brain barrier, while others may not.
# BTBR mice [2] = experiment: ASD-related behaviors overall (marble burying, direct social interaction, open field) in BTBR mice; format: in vivo, mouse; conditions: for ASD-related behaviors, administration post weaning: BTBR mice, 10 mM in drinking water to juvenile mice starting 3-4 weeks of age through adulthood; for ASD-related behaviors / symptoms, prenatal administration: BTBR mouse model, 10 mM orally in drinking water from before mating (conception) through adulthood
# Method: FIGS. 5A-D are a series of drawings illustrating that differential metabolites impact ASD-relevant behaviors in SPF mice in accordance with some embodiments herein. FIG. 5A: The abundance of select metabolites in the offspring microbiome is correlated with behavior of male offspring. Spearman correlation between the microbiome and mouse behavior, by donor (See FIGS. 1A-0). […] Color scale denotes Spearman ρ. […] Groups of mice were orally administered 10 mM Taurine or 5AV in drinking water before mating, and throughout their lifetime. Offspring were tested by marble burying, direct social interaction, and open field tests, and compared to untreated vehicle controls. Results are aggregated from 2 independent experiments. NControl=42, […]=52, NTaurine=36. Bar plots denote mean and S.E.M. Hypothesis on differences in means were tested by ANOVA on trimmed means (10%) and subsequent posthoc tests. FIGS. 5E-L: qPCR of BTBR brains after 5AV and taurine administration. Results are aggregated from 2 independent experiments. Hypothesis on differences in means were tested by ANOVA on trimmed means (10%) and subsequent posthoc tests. FIGS. 5M-V: series of graphs illustrating E18 B6 feeding 5AV and Taurine targeted metabolomics. […] In FIGS. 9A-K, mice were orally administered 10 mM Taurine or 5AV in drinking water starting 3-4 weeks of age mating, and throughout their lifetime. Offspring were tested by marble burying, direct social interaction, and open field tests, and compared to untreated vehicle controls. Results are aggregated from 2 independent experiments. NControl=20, […]=18, NTaurine=20. Bar plots denote mean and S.E.M. hypothesis on differences means were tested by ANOVA on trimmed means (10%) and subsequent posthoc tests. FIGS. 9L-Q illustrate basal properties of L5 pyramidal neurons in the mPFC. […] Taurine was orally administered to BTBR mice, a validated mouse model for ASD (McFarlane et al., 2008), from conception through adulthood to capture both prenatal and postnatal neurodevelopmental periods. […] It is will appreciated that the blood-brain barrier comprises endothelial cells, and selectively permits the movement of substances between circulating blood and the brain, for example permitting some molecules to pass from the blood to the brain, while preventing other molecules from passing from the blood to the brain. As such, it will be appreciated that at a given stage of development, some molecules may readily pass through the blood brain barrier, while others may not.
# GABA receptor = conditions: literature statement; cited from earlier work
Compound,"repetitive behavior, as measured by marble burying (BTBR mice [1])","ASD-related behaviors, administration post weaning (BTBR mice [2])","ASD-related behaviors, administration post weaning (BTBR mice [2]; listed as Taurine)","ASD-related behaviors / symptoms, prenatal administration (BTBR mice [2])","ASD-related behaviors / symptoms, prenatal administration (BTBR mice [2]; listed as Taurine)",GABA receptor agonism (GABA receptor)
NCCS(=O)(=O)O [taurine],significantly reduces repetitive behavior in male mice,did not rescue behavioral alterations; also recorded: did not have these effects,no effects on ASD-related behaviors,significant improvement in ASD-related behaviors; also recorded: reduces and/or prevents symptoms of ASD,ameliorate ASD-related behavioral deficits,weak GABA agonist
"NCCCCC(=O)O [5AV, 5-Aminovaleric acid]",reduced repetitive behavior,did not rescue behavioral alterations; also recorded: no effects on ASD-related behaviors; also recorded: did not have these effects,,significant improvement in ASD-related behaviors; also recorded: ameliorate ASD-related behavioral deficits; also recorded: reduces and/or prevents symptoms of ASD,,weak GABA receptor agonist
